# Assay results published in ChEMBL document CHEMBL2401713, “Discovery of bufadienolides as a novel class of ClC-3 chloride channel activators with antitumor activities” (J Med Chem, 2013).
# Calls of active or inactive are those of the source. No cut-off for these calls is given here.
# Tests used:
# [1] = biological target: T1, H(+)/Cl(-) exchange transporter 3 (Homo sapiens) (UniProt P51790); experiment: Activation of ClC-3 in human CNE2Z cells assessed as increase in chloride current in outward and inward direction at +80mV holding potential at 1 uM by whole-cell patch clamp method; type: cell-based
# T1 sequence (whole entry): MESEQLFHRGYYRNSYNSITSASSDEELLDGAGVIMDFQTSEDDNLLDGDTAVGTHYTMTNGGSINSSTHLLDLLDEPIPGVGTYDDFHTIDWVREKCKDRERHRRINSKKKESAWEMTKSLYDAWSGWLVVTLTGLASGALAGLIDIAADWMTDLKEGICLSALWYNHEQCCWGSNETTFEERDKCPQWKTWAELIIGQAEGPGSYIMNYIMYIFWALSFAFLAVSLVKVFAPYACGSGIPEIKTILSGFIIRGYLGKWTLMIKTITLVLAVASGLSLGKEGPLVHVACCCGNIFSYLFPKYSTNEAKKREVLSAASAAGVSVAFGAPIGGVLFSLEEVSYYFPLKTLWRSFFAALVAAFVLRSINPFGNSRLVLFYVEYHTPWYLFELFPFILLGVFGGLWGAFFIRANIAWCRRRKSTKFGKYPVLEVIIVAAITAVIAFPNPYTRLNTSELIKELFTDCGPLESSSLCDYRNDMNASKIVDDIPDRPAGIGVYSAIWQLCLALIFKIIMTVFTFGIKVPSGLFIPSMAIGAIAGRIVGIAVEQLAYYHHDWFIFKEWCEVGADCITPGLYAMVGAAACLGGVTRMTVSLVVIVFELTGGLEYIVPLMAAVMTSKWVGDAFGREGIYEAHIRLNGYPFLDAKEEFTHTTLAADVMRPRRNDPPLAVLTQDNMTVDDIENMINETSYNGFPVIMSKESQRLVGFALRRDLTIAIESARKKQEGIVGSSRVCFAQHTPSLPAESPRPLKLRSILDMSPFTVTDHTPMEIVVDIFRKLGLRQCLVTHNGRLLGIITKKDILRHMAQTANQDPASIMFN
# H22 = experiment: Cytotoxicity against mouse H22 cells expressing mutated alpha-1 Na+/K+-ATPase assessed as growth inhibition after 48 hrs by MTT assay; type: functional, cell-based; conditions: H22, 48 h
# CCRF S-180 = experiment: Cytotoxicity against mouse S180 cells expressing mutated alpha-1 Na+/K+-ATPase assessed as growth inhibition after 48 hrs by MTT assay; type: functional, cell-based; conditions: CCRF S-180, 48 h
# [2] = Cell cycle arrest in human CNE2Z cells assessed as accumulation at sub-G1 phase at 50 uM after 24 hrs by propidium iodide staining-based flow cytometric analysis in presence of ClC-3 siRNA (reference value: 1.3%); type: functional
# [3] = Cell cycle arrest in human CNE2Z cells assessed as accumulation at sub-G1 phase at 50 uM after 24 hrs by propidium iodide staining-based flow cytometric analysis in presence of NPPB (reference value: 2%); type: functional
# [4] = Cell cycle arrest in human CNE2Z cells assessed as accumulation at sub-G1 phase at 50 uM after 24 hrs by propidium iodide staining-based flow cytometric analysis in presence of tamoxifen (reference value: 1.5%); type: functional
# [5] = Cell cycle arrest in human CNE2Z cells assessed as accumulation at sub-G1 phase at 50 uM after 24 hrs by propidium iodide staining-based flow cytometric analysis (reference value: 1.1%); type: functional
# CNE2Z [6] = experiment: Induction of apoptosis in human CNE2Z cells assessed as activation of caspase-8 at 1 to 50 uM after 24 hrs by luminometric analysis; type: functional, cell-based
# CNE2Z [7] = experiment: Induction of apoptosis in human CNE2Z cells assessed as activation of caspase-3/7 at 1 to 50 uM after 24 hrs by luminometric analysis; type: functional, cell-based
# CNE2Z [8] = experiment: Induction of apoptosis in human CNE2Z cells assessed as increase in apoptotic cell level at 1 to 10 uM after 24 hrs by annexin V-FITC/propidium iodide staining-based flow cytometric analysis; type: functional
# [9] = Cell cycle arrest in human CNE2Z cells assessed as accumulation at sub-G1 phase at 5 uM after 24 hrs by propidium iodide staining-based flow cytometric analysis in presence of ClC-3 siRNA (reference value: 1.3%); type: functional
# [10] = Cell cycle arrest in human CNE2Z cells assessed as accumulation at sub-G1 phase at 1 uM after 24 hrs by propidium iodide staining-based flow cytometric analysis in presence of ClC-3 siRNA (reference value: 1.3%); type: functional
# [11] = Cell cycle arrest in human CNE2Z cells assessed as accumulation at sub-G1 phase at 5 uM after 24 hrs by propidium iodide staining-based flow cytometric analysis in presence of NPPB (reference value: 2%); type: functional
# [12] = Cell cycle arrest in human CNE2Z cells assessed as accumulation at sub-G1 phase at 1 uM after 24 hrs by propidium iodide staining-based flow cytometric analysis in presence of NPPB (reference value: 2%); type: functional
# [13] = Cell cycle arrest in human CNE2Z cells assessed as accumulation at sub-G1 phase at 5 uM after 24 hrs by propidium iodide staining-based flow cytometric analysis in presence of tamoxifen (reference value: 1.5%); type: functional
# [14] = Cell cycle arrest in human CNE2Z cells assessed as accumulation at sub-G1 phase at 1 uM after 24 hrs by propidium iodide staining-based flow cytometric analysis in presence of tamoxifen (reference value: 1.5%); type: functional
# [15] = Cell cycle arrest in human CNE2Z cells assessed as accumulation at sub-G1 phase at 5 uM after 24 hrs by propidium iodide staining-based flow cytometric analysis (reference value: 1.1%); type: functional
# [16] = Upregulation of ClC-3 protein expression in human CNE2Z cells after 24 hrs by Western blot analysis; type: functional, cell-based
# [17] = biological target: T1, H(+)/Cl(-) exchange transporter 3 (Homo sapiens); experiment: Activation of ClC-3 in human CNE2Z cells assessed as increase in chloride current density at +80mV holding potential at 1 uM by whole-cell patch clamp method relative to vehicle-treated control; type: cell-based
# HepG2 [18] = experiment: Cytotoxicity against adriamycin-resistant human HepG2 cells assessed as growth inhibition after 48 hrs by MTT assay; type: functional, cell-based; conditions: HepG2, 48 h
# [19] = Cytotoxicity against human CNE2Z cells assessed as growth inhibition after 48 hrs by MTT assay; type: functional, cell-based
# HepG2 [20] = experiment: Cytotoxicity against human HepG2 cells assessed as growth inhibition after 48 hrs by MTT assay; type: functional, cell-based; conditions: HepG2, 48 h
# [21] = Cytotoxicity against human CNE1 cells assessed as growth inhibition after 48 hrs by MTT assay; type: functional, cell-based; conditions: CNE
# [22] = Cell cycle arrest in human CNE2Z cells assessed as accumulation at sub-G1 phase at 1 uM after 24 hrs by propidium iodide staining-based flow cytometric analysis (reference value: 1.1%); type: functional
# CNE2Z [23] = experiment: Induction of apoptosis in human CNE2Z cells assessed as expression of caspase-3 at 1 uM after 24 hrs by annexin V-FITC/propidium iodide staining-based flow cytometric analysis in presence of tamoxifen, NPPB, ClC-3 siRNA; type: functional, cell-based
# CNE2Z [24] = experiment: Induction of apoptosis in human CNE2Z cells assessed as induction of PARP cleavage at 1 uM after 24 hrs by annexin V-FITC/propidium iodide staining-based flow cytometric analysis in presence of tamoxifen, NPPB, ClC-3 siRNA; type: functional, cell-based
# CNE2Z [25] = experiment: Induction of apoptosis in human CNE2Z cells assessed as increase in apoptotic cell level at 1 to 10 uM after 24 hrs by annexin V-FITC/propidium iodide staining-based flow cytometric analysis in presence of tamoxifen, NPPB, ClC-3 siRNA; type: functional
# CNE2Z [26] = experiment: Induction of apoptosis in human CNE2Z cells assessed as activation of caspase-3 at 1 uM after 24 hrs by annexin V-FITC/propidium iodide staining-based flow cytometric analysis; type: functional, cell-based
# CNE2Z [27] = experiment: Induction of apoptosis in human CNE2Z cells assessed as induction of PARP cleavage at 1 uM after 24 hrs by annexin V-FITC/propidium iodide staining-based flow cytometric analysis; type: functional, cell-based
# [28] = Cell cycle arrest in human CNE2Z cells assessed as accumulation at sub-G1 phase at 10 uM after 24 hrs by propidium iodide staining-based flow cytometric analysis in presence of ClC-3 siRNA (reference value: 1.3%); type: functional
# [29] = Cell cycle arrest in human CNE2Z cells assessed as accumulation at sub-G1 phase at 10 uM after 24 hrs by propidium iodide staining-based flow cytometric analysis in presence of NPPB (reference value: 2%); type: functional
# [30] = Cell cycle arrest in human CNE2Z cells assessed as accumulation at sub-G1 phase at 10 uM after 24 hrs by propidium iodide staining-based flow cytometric analysis in presence of tamoxifen (reference value: 1.5%); type: functional
# [31] = Cell cycle arrest in human CNE2Z cells assessed as accumulation at sub-G1 phase at 10 uM after 24 hrs by propidium iodide staining-based flow cytometric analysis (reference value: 1.1%); type: functional
# [32] = Cytotoxicity against SV40-transformed human NP69 cells assessed as cell viability after 48 hrs by MTT assay; type: cell-based; conditions: NP69, 48 h
SMILES,IC50 (H22),IC50 (CCRF S-180),Activity [17],IC50 (HepG2 [18]),IC50 [19],IC50 (HepG2 [20]),IC50 [21],also measured
CC(=O)O[C@@H]1C[C@H](c2ccc(=O)oc2)[C@@]2(C)CC[C@H]3[C@@H](CC[C@@H]4C[C@@H](O)CC[C@@]43C)[C@@]12O,> 50 µM,> 50 µM,inactive,> 100 µM,> 100 µM,> 100 µM,> 100 µM,Activity [1]: inactive; Activity [2]: 3.4%; Activity [3]: 3.8%; Activity [4]: 3.9%; Activity [5]: 4%; Activity (CNE2Z [6]): inactive; Activity (CNE2Z [7]): inactive; Activity (CNE2Z [8]): inactive; Activity [9]: 3.3%; Activity [10]: 3%; Activity [11]: 3.5%; Activity [12]: 2.8%; Activity [13]: 3.5%; Activity [14]: 2.2%; Activity [15]: 3.1%; Activity [16]: inactive; Activity [22]: 1.3%
C[C@]12CC[C@H](O)C[C@H]1CC[C@@H]1[C@@H]2CC[C@]2(C)[C@@H](c3ccc(=O)oc3)[C@@H](O)C[C@]12O [DESACETYLBUFOTALIN],> 50 µM,> 50 µM,Active,2.6 µM,1.77 µM,3.58 µM,4.89 µM,–
C[C@]12CC[C@H]3[C@@H](CC[C@@H]4C[C@@H](O)CC[C@@]43C=O)[C@]13O[C@@H]3C[C@@H]2c1ccc(=O)oc1,> 50 µM,> 50 µM,–,> 100 µM,26.5 µM,> 100 µM,15.2 µM,–
COC(=O)CCCCCCC(=O)O[C@H]1CC[C@@]2(C)[C@H](CC[C@@H]3[C@@H]2CC[C@]2(C)[C@@H](c4ccc(=O)oc4)CC[C@]32O)C1,> 50 µM,> 50 µM,Active,2.38 µM,2.87 µM,3.18 µM,1.72 µM,–
C[C@]12CC[C@H](O)C[C@H]1CC[C@@H]1[C@@H]2CC[C@]2(C)[C@@H](c3ccc(=O)oc3)CC[C@]12O [BUFALIN],> 50 µM,> 50 µM,–,0.345 µM,0.46 µM,0.589 µM,0.279 µM,Activity (CNE2Z [23]): inactive; Activity (CNE2Z [24]): inactive; Activity (CNE2Z [25]): inactive; Activity (CNE2Z [26]): Active; Activity (CNE2Z [27]): Active; Activity (CNE2Z [8]): 35.2%; Activity [28]: 40.9%; Activity [9]: 31.7%; Activity [10]: 21.5%; Activity [29]: 42.7%; Activity [11]: 33.9%; Activity [12]: 23.1%; Activity [30]: 43.9%; Activity [13]: 36.9%; Activity [14]: 26.5%; Activity [31]: 59.1%; Activity [15]: 50.5%; Activity [16]: Dose-dependent effect; IC50 [32]: > 25 µM; Activity [22]: 39.1%
C[C@]12CC[C@H](OC(=O)CCCCCCC(=O)O)C[C@H]1CC[C@@H]1[C@@H]2CC[C@]2(C)[C@@H](c3ccc(=O)oc3)CC[C@]12O,> 50 µM,> 50 µM,–,> 100 µM,7.38 µM,> 100 µM,4.99 µM,–
CC(=O)O[C@H]1[C@H]2O[C@]23[C@@H]2CC[C@@H]4C[C@@H](O)CC[C@]4(C)[C@H]2CC[C@]3(C)[C@H]1c1ccc(=O)oc1 [CINOBUFAGIN],> 50 µM,> 50 µM,–,1.71 µM,0.39 µM,2.35 µM,0.31 µM,–
